How the values were obtained:
Hepatocyte [1] = assay: Drug metabolism in rat hepatocytes assessed as (S)-2-(4-(trifluoromethylsulfonyloxy)phenyl)propanoic acid level at 10 uM after 60 mins; type: ADME, cell-based; details: 1 h
Hepatocyte [2] = assay: Drug metabolism in rat hepatocytes assessed as (S)-2-(4-(trifluoromethylsulfonyloxy)phenyl)propanoic acid level at 10 uM after 30 mins; type: ADME, cell-based; details: 0.5 h
Hepatocyte [3] = assay: Drug metabolism in rat hepatocytes assessed as (S)-2-(4-(trifluoromethylsulfonyloxy)phenyl)propanoic acid level at 10 uM after 15 mins; type: ADME, cell-based; details: 0.25 h
Hepatocyte [4] = assay: Drug metabolism in human hepatocytes assessed as (S)-2-(4-(trifluoromethylsulfonyloxy)phenyl)propanoic acid level at 10 uM after 120 mins; type: ADME, cell-based; details: 2 h
Hepatocyte [5] = assay: Drug metabolism in human hepatocytes assessed as (S)-2-(4-(trifluoromethylsulfonyloxy)phenyl)propanoic acid level at 10 uM after 90 mins; type: ADME, cell-based; details: 1.5 h
Hepatocyte [6] = assay: Drug metabolism in human hepatocytes assessed as (S)-2-(4-(trifluoromethylsulfonyloxy)phenyl)propanoic acid level at 10 uM after 60 mins; type: ADME, cell-based; details: 1 h
Hepatocyte [7] = assay: Drug metabolism in human hepatocytes assessed as (S)-2-(4-(trifluoromethylsulfonyloxy)phenyl)propanoic acid level at 10 uM after 30 mins; type: ADME, cell-based; details: 0.5 h
Hepatocyte [8] = assay: Drug metabolism in human hepatocytes assessed as (S)-2-(4-(trifluoromethylsulfonyloxy)phenyl)propanoic acid level at 10 uM after 15 mins; type: ADME, cell-based; details: 0.25 h
[9] = Chemical stability of the compound assessed as compound remaining at pH 9 after 2 hrs; type: physicochemical; details: buffer, read-out: Stability
[10] = Chemical stability of the compound assessed as compound remaining at pH 3.5 after 2 hrs; type: physicochemical; details: buffer, read-out: Stability
[11] = Metabolic stability in rat liver microsomes assessed as compound remaining at 1 uM preincubated for 10 mins measured after 30 mins; type: ADME, Microsome; details: read-out: Stability
[12] = Metabolic stability in rat plasma assessed as compound remaining at 1 uM after 1 hr; type: ADME, cell-free; details: read-out: Stability
CYP2C19 = CYP2C19 (Homo sapiens, UniProt P33261); assay: Inhibition of CYP2C19 using DBF as substrate at 10 uM; type: ADME; details: probe DBF
CYP2C19, sequence (P33261 whole entry): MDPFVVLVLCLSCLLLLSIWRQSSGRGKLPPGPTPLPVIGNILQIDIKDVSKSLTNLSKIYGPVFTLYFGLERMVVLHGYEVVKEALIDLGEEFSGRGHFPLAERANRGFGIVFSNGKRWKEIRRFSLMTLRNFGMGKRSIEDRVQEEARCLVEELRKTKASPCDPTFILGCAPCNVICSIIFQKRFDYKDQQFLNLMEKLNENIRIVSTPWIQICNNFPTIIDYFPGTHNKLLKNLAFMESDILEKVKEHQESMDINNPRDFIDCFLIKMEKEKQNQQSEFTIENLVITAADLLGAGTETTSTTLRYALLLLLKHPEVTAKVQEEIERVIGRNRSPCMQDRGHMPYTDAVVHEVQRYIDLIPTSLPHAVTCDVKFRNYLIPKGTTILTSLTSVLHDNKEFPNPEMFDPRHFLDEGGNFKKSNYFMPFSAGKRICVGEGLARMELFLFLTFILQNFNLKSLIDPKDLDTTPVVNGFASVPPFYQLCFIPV

Hepatocyte [13] = assay: Drug metabolism in human hepatocytes assessed as (R)-2-(4-(trifluoromethylsulfonyloxy)phenyl)propanoic acid level at 10 uM after 15 mins; type: ADME, cell-based; details: 0.25 h
Hepatocyte [14] = assay: Drug metabolism in human hepatocytes assessed as (R)-2-(4-(trifluoromethylsulfonyloxy)phenyl)propanoic acid level at 10 uM after 30 mins; type: ADME, cell-based; details: 0.5 h
Hepatocyte [15] = assay: Drug metabolism in human hepatocytes assessed as (R)-2-(4-(trifluoromethylsulfonyloxy)phenyl)propanoic acid level at 10 uM after 60 mins; type: ADME, cell-based; details: 1 h
Hepatocyte [16] = assay: Drug metabolism in human hepatocytes assessed as (R)-2-(4-(trifluoromethylsulfonyloxy)phenyl)propanoic acid level at 10 uM after 90 mins; type: ADME, cell-based; details: 1.5 h
Hepatocyte [17] = assay: Drug metabolism in human hepatocytes assessed as (R)-2-(4-(trifluoromethylsulfonyloxy)phenyl)propanoic acid level at 10 uM after 120 mins; type: ADME, cell-based; details: 2 h
CYP2C9 = CYP2C9 (Homo sapiens, UniProt P11712); assay: Inhibition of CYP2C9 using 7MFC as substrate at 10 uM; type: ADME; details: probe 7MFC
CYP2C9, sequence (P11712 whole entry): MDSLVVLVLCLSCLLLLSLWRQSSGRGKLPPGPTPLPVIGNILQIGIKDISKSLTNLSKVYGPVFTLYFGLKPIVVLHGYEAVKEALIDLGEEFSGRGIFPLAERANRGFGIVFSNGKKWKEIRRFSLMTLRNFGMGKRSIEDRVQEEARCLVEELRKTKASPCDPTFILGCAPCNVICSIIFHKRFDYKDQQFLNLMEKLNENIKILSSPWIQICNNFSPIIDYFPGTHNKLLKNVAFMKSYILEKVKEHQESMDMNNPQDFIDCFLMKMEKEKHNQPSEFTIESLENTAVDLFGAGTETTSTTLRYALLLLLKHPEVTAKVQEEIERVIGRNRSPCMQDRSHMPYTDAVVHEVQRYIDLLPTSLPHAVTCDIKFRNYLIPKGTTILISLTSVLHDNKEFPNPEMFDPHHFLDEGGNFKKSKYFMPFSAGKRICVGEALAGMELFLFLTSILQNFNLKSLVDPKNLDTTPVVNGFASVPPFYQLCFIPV

CYP3A4 = CYP3A4 (Homo sapiens, UniProt P08684); assay: Inhibition of CYP3A4 using BFC as substrate at 10 uM; type: ADME; details: probe BFC
CYP3A4, sequence (P08684 whole entry): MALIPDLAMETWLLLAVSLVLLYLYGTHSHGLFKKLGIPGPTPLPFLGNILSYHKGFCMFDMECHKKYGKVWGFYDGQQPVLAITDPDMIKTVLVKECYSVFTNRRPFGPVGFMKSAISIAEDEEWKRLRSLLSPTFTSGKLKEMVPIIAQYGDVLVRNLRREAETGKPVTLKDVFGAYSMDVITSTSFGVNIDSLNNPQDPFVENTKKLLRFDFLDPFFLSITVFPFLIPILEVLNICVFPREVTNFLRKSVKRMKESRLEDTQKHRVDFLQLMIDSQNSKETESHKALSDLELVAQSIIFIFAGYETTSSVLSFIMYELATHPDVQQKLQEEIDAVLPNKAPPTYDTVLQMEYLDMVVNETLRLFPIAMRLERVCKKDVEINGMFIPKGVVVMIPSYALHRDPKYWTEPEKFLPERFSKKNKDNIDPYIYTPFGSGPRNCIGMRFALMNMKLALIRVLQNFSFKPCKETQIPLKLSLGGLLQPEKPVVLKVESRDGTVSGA

CYP2D6 = CYP2D6 (Homo sapiens, UniProt P10635); assay: Inhibition of CYP2D6 using AMMC as substrate at 10 uM; type: ADME; details: probe AMMC
CYP2D6, sequence (P10635 whole entry): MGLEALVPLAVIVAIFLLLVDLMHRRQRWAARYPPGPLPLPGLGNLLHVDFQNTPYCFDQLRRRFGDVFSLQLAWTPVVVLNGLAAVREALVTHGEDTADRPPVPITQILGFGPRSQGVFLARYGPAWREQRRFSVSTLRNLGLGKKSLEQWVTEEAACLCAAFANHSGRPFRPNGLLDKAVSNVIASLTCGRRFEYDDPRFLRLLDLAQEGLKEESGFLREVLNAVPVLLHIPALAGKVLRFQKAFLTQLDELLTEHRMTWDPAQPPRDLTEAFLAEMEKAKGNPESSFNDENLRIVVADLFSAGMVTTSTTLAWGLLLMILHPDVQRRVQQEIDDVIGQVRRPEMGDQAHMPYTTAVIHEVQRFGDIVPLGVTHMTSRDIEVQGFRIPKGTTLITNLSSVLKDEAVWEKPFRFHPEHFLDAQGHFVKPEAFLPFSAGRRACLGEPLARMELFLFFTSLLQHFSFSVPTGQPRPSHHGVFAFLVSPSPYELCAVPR

CYP1A2 = molecular target: T1, CYP1A2 (Homo sapiens, UniProt P05177); assay: Inhibition of CYP1A2 using CEC as substrate at 10 uM; type: ADME; details: probe CEC
T1 sequence (P05177 whole entry): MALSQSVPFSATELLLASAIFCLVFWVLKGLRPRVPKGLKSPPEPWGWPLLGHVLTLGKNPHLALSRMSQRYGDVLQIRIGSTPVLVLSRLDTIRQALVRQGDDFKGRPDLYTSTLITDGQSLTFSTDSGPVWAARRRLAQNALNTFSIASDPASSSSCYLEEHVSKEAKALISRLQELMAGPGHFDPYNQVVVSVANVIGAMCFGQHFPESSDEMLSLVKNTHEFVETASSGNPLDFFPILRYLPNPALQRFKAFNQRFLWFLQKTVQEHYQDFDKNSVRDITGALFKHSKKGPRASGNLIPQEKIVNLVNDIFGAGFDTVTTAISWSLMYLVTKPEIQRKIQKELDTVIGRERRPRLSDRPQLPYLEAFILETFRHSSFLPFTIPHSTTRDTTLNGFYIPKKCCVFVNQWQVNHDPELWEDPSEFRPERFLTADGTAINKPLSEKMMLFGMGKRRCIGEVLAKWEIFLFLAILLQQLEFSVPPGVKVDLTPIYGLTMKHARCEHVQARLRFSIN

[18] = molecular target: T2, C-X-C chemokine receptor type 2 (Homo sapiens) (UniProt P25025); assay: Inhibition of CXCR2 in human polymorphonucleate cells assessed as inhibition of CXCL1-induced chemotaxis at 10^-8 M incubated for 15 mins prior to CXCL1-induction measured after 45 mins
T2 sequence (whole entry): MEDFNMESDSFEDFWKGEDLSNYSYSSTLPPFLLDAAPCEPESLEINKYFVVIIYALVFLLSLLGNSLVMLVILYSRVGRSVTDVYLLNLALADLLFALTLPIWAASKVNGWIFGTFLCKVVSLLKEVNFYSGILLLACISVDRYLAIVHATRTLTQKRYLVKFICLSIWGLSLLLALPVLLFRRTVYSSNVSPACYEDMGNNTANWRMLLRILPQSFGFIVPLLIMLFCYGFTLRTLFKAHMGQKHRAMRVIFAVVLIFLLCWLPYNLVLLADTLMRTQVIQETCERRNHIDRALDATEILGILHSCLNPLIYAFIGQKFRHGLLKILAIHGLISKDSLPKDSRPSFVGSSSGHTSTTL

[19] = molecular target: Interleukin-8 receptors, CXCR1/CXCR2 (Homo sapiens) (UniProt P25025+P25024); assay: Inhibition of CXCR1/2 in human polymorphonucleate cells assessed as inhibition of CXCL8-induced chemotaxis at 10^-8 M incubated for 15 mins prior to CXCL8-induction measured after 45 mins
[20] = Clearance in Sprague-Dawley rat at 14 mg/kg, iv; type: ADME, organism-based; parameters: dose 14 mg/kg, route intravenous; details: in vivo
[21] = Oral bioavailability in Sprague-Dawley rat at 14 mg/kg; type: ADME, organism-based; details: in vivo
[22] = Elimination half life in Sprague-Dawley rat at 14 mg/kg, iv; type: ADME, organism-based; parameters: dose 14 mg/kg, route intravenous; details: in vivo, read-out: beta t1/2 (converted)
[23] = molecular target: Voltage-gated inwardly rectifying potassium channel KCNH2 (Homo sapiens, UniProt Q12809); assay: Displacement of [3H]astemizole from human ERG expressed in HEK293 cells at 10 uM for 60 mins by liquid scintillation counting; type: cell-based; details: hek293, 1 h
Voltage-gated inwardly rectifying potassium channel KCNH2, sequence (Q12809 whole entry): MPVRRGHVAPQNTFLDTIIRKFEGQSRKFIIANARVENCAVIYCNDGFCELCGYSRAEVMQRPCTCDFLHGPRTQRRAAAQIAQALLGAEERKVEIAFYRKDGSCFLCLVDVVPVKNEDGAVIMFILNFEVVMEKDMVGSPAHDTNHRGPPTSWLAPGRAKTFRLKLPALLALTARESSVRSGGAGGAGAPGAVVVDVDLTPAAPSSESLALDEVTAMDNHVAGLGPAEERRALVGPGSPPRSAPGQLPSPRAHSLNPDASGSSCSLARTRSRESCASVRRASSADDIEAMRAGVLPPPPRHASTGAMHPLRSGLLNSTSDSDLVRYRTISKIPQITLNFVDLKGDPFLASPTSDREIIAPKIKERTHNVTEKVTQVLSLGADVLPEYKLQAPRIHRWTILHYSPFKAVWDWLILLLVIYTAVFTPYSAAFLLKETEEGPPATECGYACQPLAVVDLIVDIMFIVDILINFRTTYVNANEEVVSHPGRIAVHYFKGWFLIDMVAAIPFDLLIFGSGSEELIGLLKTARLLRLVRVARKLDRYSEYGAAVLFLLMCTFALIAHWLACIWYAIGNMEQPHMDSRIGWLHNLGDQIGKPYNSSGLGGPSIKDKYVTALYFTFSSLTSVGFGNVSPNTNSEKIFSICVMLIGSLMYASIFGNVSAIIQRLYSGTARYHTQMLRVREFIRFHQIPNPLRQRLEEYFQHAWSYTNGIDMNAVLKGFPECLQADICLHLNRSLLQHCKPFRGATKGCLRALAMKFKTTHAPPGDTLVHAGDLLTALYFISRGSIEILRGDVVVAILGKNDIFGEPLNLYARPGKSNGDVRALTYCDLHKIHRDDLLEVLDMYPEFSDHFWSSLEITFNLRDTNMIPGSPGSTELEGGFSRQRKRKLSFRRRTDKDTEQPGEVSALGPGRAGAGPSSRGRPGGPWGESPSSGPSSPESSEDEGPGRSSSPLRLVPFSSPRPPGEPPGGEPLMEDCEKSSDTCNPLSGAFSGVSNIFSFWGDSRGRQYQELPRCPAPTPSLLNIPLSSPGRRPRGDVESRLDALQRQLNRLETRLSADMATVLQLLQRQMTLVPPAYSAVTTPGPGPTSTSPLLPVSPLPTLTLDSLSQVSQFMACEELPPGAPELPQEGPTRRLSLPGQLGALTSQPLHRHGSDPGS

[24] = Dissociation constant, pKa of the compound; type: physicochemical
Hepatocyte [25] = assay: Drug metabolism in rat hepatocytes assessed as (R)-2-(4-(trifluoromethylsulfonyloxy)phenyl)propanoic acid level at 10 uM after 120 mins; type: ADME, cell-based; details: 2 h
Hepatocyte [26] = assay: Drug metabolism in rat hepatocytes assessed as (R)-2-(4-(trifluoromethylsulfonyloxy)phenyl)propanoic acid level at 10 uM after 90 mins; type: ADME, cell-based; details: 1.5 h
Hepatocyte [27] = assay: Drug metabolism in rat hepatocytes assessed as (R)-2-(4-(trifluoromethylsulfonyloxy)phenyl)propanoic acid level at 10 uM after 60 mins; type: ADME, cell-based; details: 1 h
Hepatocyte [28] = assay: Drug metabolism in rat hepatocytes assessed as (R)-2-(4-(trifluoromethylsulfonyloxy)phenyl)propanoic acid level at 10 uM after 30 mins; type: ADME, cell-based; details: 0.5 h
Hepatocyte [29] = assay: Drug metabolism in rat hepatocytes assessed as (R)-2-(4-(trifluoromethylsulfonyloxy)phenyl)propanoic acid level at 10 uM after 15 mins; type: ADME, cell-based; details: 0.25 h
Hepatocyte [30] = assay: Drug metabolism in rat hepatocytes assessed as (S)-2-(4-(trifluoromethylsulfonyloxy)phenyl)propanoic acid level at 10 uM after 120 mins; type: ADME, cell-based; details: 2 h
Hepatocyte [31] = assay: Drug metabolism in rat hepatocytes assessed as (S)-2-(4-(trifluoromethylsulfonyloxy)phenyl)propanoic acid level at 10 uM after 90 mins; type: ADME, cell-based; details: 1.5 h
Hepatocyte [32] = assay: Metabolic stability in rat hepatocytes assessed as compound remaining at 10 uM after 120 mins; type: ADME, cell-based; details: 2 h
Hepatocyte [33] = assay: Metabolic stability in rat hepatocytes assessed as compound remaining at 10 uM after 90 mins; type: ADME, cell-based; details: 1.5 h
Hepatocyte [34] = assay: Metabolic stability in rat hepatocytes assessed as compound remaining at 10 uM after 60 mins; type: ADME, cell-based; details: 1 h
Hepatocyte [35] = assay: Metabolic stability in rat hepatocytes assessed as compound remaining at 10 uM after 30 mins; type: ADME, cell-based; details: 0.5 h
Hepatocyte [36] = assay: Metabolic stability in rat hepatocytes assessed as compound remaining at 10 uM after 15 mins; type: ADME, cell-based; details: 0.25 h
Hepatocyte [37] = assay: Metabolic stability in human hepatocytes assessed as compound remaining at 10 uM after 120 mins; type: ADME, cell-based; details: 2 h
Hepatocyte [38] = assay: Metabolic stability in human hepatocytes assessed as compound remaining at 10 uM after 90 mins; type: ADME, cell-based; details: 1.5 h
Hepatocyte [39] = assay: Metabolic stability in human hepatocytes assessed as compound remaining at 10 uM after 60 mins; type: ADME, cell-based; details: 1 h
Hepatocyte [40] = assay: Metabolic stability in human hepatocytes assessed as compound remaining at 10 uM after 30 mins; type: ADME, cell-based; details: 0.5 h
Hepatocyte [41] = assay: Metabolic stability in human hepatocytes assessed as compound remaining at 10 uM after 15 mins; type: ADME, cell-based; details: 0.25 h
[42] = Chemical stability of the compound assessed as compound remaining at pH 7.4 after 2 hrs; type: physicochemical; details: buffer, read-out: Stability

Row | Structure (SMILES) | Drug metabolism (Hepatocyte [1]) | Drug metabolism (Hepatocyte [2]) | Drug metabolism (Hepatocyte [3]) | Drug metabolism (Hepatocyte [4]) | Drug metabolism (Hepatocyte [5]) | Drug metabolism (Hepatocyte [6]) | Drug metabolism (Hepatocyte [7]) | Drug metabolism (Hepatocyte [8]) | remaining at 2 h [9] | remaining at 2 h [10] | remaining at 1 h, 1 µM [12] | inhibition at 10 µM (CYP2C19) | inhibition at 10 µM (CYP2C9) | inhibition at 10 µM (CYP3A4) | inhibition at 10 µM (CYP2D6) | inhibition at 10 µM (CYP1A2) | inhibition [18] | inhibition [19] | pKa [24] | Drug metabolism (Hepatocyte [30]) | further results
1 | C[C@@H](C(=O)NS(C)(=O)=O)c1ccc(OS(=O)(=O)C(F)(F)F)cc1 [LADARIXIN] | 50 ng/mL | 31 ng/mL | 7 ng/mL | 6 ng/mL | 3 ng/mL | 2 ng/mL | < 1 ng/mL | < 1 ng/mL | 30% | > 99% | 100% | < 5% | < 5% | < 5% | < 5% | < 5% | 68% | 67% | 4.4 | 56 ng/mL | remaining at 0.5 h, 1 µM [11]: 100%; Drug metabolism (Hepatocyte [13]): < 1 ng/mL; Drug metabolism (Hepatocyte [14]): 3 ng/mL; Drug metabolism (Hepatocyte [15]): 15 ng/mL; Drug metabolism (Hepatocyte [16]): 20 ng/mL; Drug metabolism (Hepatocyte [17]): 30 ng/mL; clearance [20]: 0.1 mL/min/kg; bioavailability [21]: 100%; half-life [22]: 1140 min; inhibition (INH) [23]: Not Active; Drug metabolism (Hepatocyte [25]): 4 ng/mL; Drug metabolism (Hepatocyte [26]): 5 ng/mL; Drug metabolism (Hepatocyte [27]): 3 ng/mL; Drug metabolism (Hepatocyte [28]): 5 ng/mL; Drug metabolism (Hepatocyte [29]): 22 ng/mL; Drug metabolism (Hepatocyte [31]): 54 ng/mL
2 | C[C@@H](C(=O)O)c1ccc(OS(=O)(=O)C(F)(F)F)cc1 | 449 ng/mL | 210 ng/mL | 117 ng/mL | 330 ng/mL | 260 ng/mL | 240 ng/mL | 84 ng/mL | 21 ng/mL | 30% | > 99% | 100% | < 5% | < 5% | < 5% | < 5% | < 5% | 63% | 62% | 4 | 870 ng/mL | Stability (Hepatocyte [32]): 1946 ng/mL; Stability (Hepatocyte [33]): 2167 ng/mL; Stability (Hepatocyte [34]): 2287 ng/mL; Stability (Hepatocyte [35]): 2541 ng/mL; Stability (Hepatocyte [36]): 2839 ng/mL; Stability (Hepatocyte [37]): 2541 ng/mL; Stability (Hepatocyte [38]): 2620 ng/mL; Stability (Hepatocyte [39]): 2696 ng/mL; Stability (Hepatocyte [40]): 2844 ng/mL; Stability (Hepatocyte [41]): 2932 ng/mL; remaining at 2 h [42]: > 99%; Drug metabolism (Hepatocyte [31]): 664 ng/mL
